One data set concerns T. b. brucei. The data set is described as follows: In vitro antitrypanosomal activity against T. brucei (growth inhibition). In kind it is cell-based, Trypanosoma brucei. As to conditions: Trypanosoma brucei. Here is the method: Primary hits from the screen were further characterized using a dose-response assay format to determine the EC50. In parallel, the cytotoxicities of these compounds were determined against a proliferating human hepatoma cell line (Huh7). […] SI—CC50/EC50). The final set of confirmed T. brucei hits consisted of 1035 inhibitors. […] In vitro antitrypanosomal activities against T. b. rhodesiense (STIB9000) and cytotoxicities against L6 rat myoblast cells were measured following established protocols (Orhan et al., Mar. Drugs 8:47 (2010). […] All wells including negative controls contained a final of 0.4% DMSO. After incubation of the plates at 37° C. for 48 h, the parasite density was determined using the CellTiter-Glo reagent (Promega), a firefly luciferase assay system that measures the amount of cellular ATP present in plate wells.

The subject of another data set is Trypanosoma cruzi. The data set is described as follows: Efficacy against T. cruzi in vitro. In kind it is cell-based. As to conditions: Trypanosoma cruzi; for EC90: read-out: T.cruzi EC90.
The nature of data set [1]: Distribution between mouse plasma and brain (brain penetration, ip). Format: in vivo. As to conditions: for Brain/plasma ratio / [compound]Brain / [compound]Plasma: Table 14, mice, single ip dose 5 mg/kg, one hour post-dose; for [compound]Brain / [compound]Plasma: ± SEM of 3 mice (compound 3: 6 mice); for concentration at 1 h / Kp at 1 h: mouse, 5 mg/kg, Table 8; for concentration at 1 h: groups of 3 mice (compound 3: ± SEM of 6 mice); for Kp at 1 h: groups of 3 mice, read-out: Average brain/plasma ratio. Here is the method:
For distribution of compounds between mouse plasma and brain, mice (in groups of 3) were injected with test compounds (5 mg/kg ip) and sacrificed at the indicated times for collection of plasma and brain. Compound was dissolved in 0.4 mL of dosing solution (7% Tween 80, 3% ethanol, 5% DMSO, 0.9% saline) for ip injections. The brains were weighed and immediately frozen, then later homogenized in acetonitrile using a Dounce homogenizer. Prior to animal studies, recovery of test compound was carried out by adding a known amount to a mouse brain in the test extraction solvent and performing the homogenization. Compound recovery was determined by liquid chromatography/tandem mass spectrometry analysis relative to a standard compound amount. Blood was taken from the same mice in heparinized capillary tubes (Fisherbrand) for determination of compound concentration in plasma. The concentration of compound in the brain was obtained by dividing the moles of compound in the brain by the brain volume (obtained from the brain weight assuming 1 g is 1 mL) and correcting for the brain vasculature volume of 2.5% by weight.
Brain penetration studies (Table 14) were initially performed upon compounds 1, 2, and 3, but were expanded to include other compounds in order to explore the SAR of brain penetration. Groups of three mice were given single 5 mg/kg ip doses of the test compounds and were sacrificed 1 h post-dose.

In a further data set the test system is human hepatocytes HepG2. Briefly: Cytotoxicity against HepG2 cells. As to conditions: for EC50: Homo sapiens, HepG2, read-out: HepG2 EC50; for EC90: read-out: HepG2 EC90, concentration required to inhibit growth by 90%, human hepatocytes.
Data set [2] relates to human lymphocytes CRL-8155. Briefly: Cytotoxicity against CRL-8155 cells. As to conditions: human lymphoblasts; for EC50: read-out: CRL-8155 EC50, concentration required to inhibit growth by 50%; for EC90: read-out: CRL-8155 EC90, concentration required to inhibit growth by 90%.
Procedure: The selectivity of each compound for the parasite over each of the two cell lines was calculated.
Where [3] appears, read: Table 8, read-out: T. brucei EC50.
[4] abbreviates: Table 11, read-out: T. b. brucei EC50.
[5] abbreviates: Table 9, read-out: T. brucei EC50.
[6] abbreviates: Table 9, read-out: T. brucei EC90.
The mark [7] stands for this setting: Table 10, read-out: T.cruzi EC50.
Setting [8] is: brain and plasma, intraperitoneal.
The mark [9] stands for this setting: brain, intraperitoneal, read-out: Average [compound] brain.
[10] abbreviates: plasma, intraperitoneal, read-out: Average [compound] plasma.

Where two headings read alike, the source gives them in different places.

Take `O=C(Nc1ccc2sc(-c3ccc(F)c(F)c3)nc2c1)N1CC[C@@H](F)C1` [Compound 4, (R)-2-(3,4-Difluorophenyl)-5-(3-fluoro-N-pyrrolidylamido)benzothiazole]: the EC50 in the data set on T. b. brucei (Table 6, read-out: T. brucei EC50) was determined as 326 nM; with T. b. brucei (setting [3]), 326 nM; in the data set with T. b. brucei (setting [4]), 326 nM; in the data set on T. b. brucei (setting [5]) it was 326 nM; in the data set on Trypanosoma cruzi (Table 6, read-out: T. cruzi EC50), 491 nM; with Trypanosoma cruzi (setting [7]) it was 968 nM. Moreover, the EC50 (in the data set on human hepatocytes HepG2; in data set [2]) was > 50000 nM in each case. The EC90 in the data set with T. b. brucei (setting [6]) is 491 nM; in the data set on Trypanosoma cruzi (Table 10), 1540 nM; in the data set with human hepatocytes HepG2 it was > 50000 nM; in data set [2], > 50000 nM. The Brain/plasma ratio in data set [1] was 4.86 ± 1.055. Besides, the “[compound]Brain” value in data set [1] was 6.35 ± 2.257 µM. For the same compound, the “[compound]Plasma” value in data set [1] was found to be 1.20 ± 0.270 µM. The concentration at 1 h in data set [1] (in vivo, read-out: Average [compound] brain) came out at 6350 ± 3910 nM; in data set [1] (in vivo, read-out: Average [compound] plasma) it was 1200 ± 467 nM. Also, the Kp at 1 h in data set [1] (in vivo) was 4.86 ± 1.83.

`O=C(Nc1ccc2sc(-c3ccc(F)c(F)c3)nc2c1)N1CCC(C(F)(F)F)C1` (stereo not shown) [Compound 10, 2-(3,4-Difluorophenyl)-5-[(3-trifluoromethyl)-N-pyrrolidylamido]benzothiazole] yielded a melting point of 171 to 175 °C. In addition, in the data set on T. b. brucei (setting [3]), the EC50 was 1700 nM. Also, the EC50 in the data set with T. b. brucei (setting [5]) was 1690 nM. Further, the EC90 with T. b. brucei (setting [6]) worked out at 4880 nM. Besides, in data set [1], the Brain/plasma ratio was 0.477 ± 0.052, the “[compound]Brain” value turned out to be 1.97 ± 0.612 µM and the “[compound]Plasma” value was 4.15 ± 1.368 µM. Further, in data set [1] (setting [8]), the Kp at 1 h turned out to be 0.477 ± 0.09. The concentration at 1 h in data set [1] (setting [9]) turned out to be 1970 ± 1060 nM. The concentration at 1 h in data set [1] (setting [10]) was determined as 4150 ± 2370 nM.

As to `CN(C)C1CCN(C(=O)Nc2ccc3sc(-c4ccc(F)c(F)c4)nc3c2)C1` (stereo not shown) [Compound 11, 2-(3,4-Difluorophenyl)-5-(3-dimethylamino-N-pyrrolidylamido)benzothiazole], the melting point lay in the range of 147 to 149 °C. Further, the EC50 in the data set with T. b. brucei (setting [3]) stood at 1700 nM. The EC50 in the data set on T. b. brucei (setting [5]) was determined as 1700 nM. Moreover, the EC90 in the data set with T. b. brucei (setting [6]) is 1950 nM. Also, in data set [1], the Brain/plasma ratio came to 3.80 ± 0.331, the “[compound]Brain” value amounted to 3.00 ± 0.796 µM and the “[compound]Plasma” value was determined as 0.780 ± 0.202 µM. Further, the Kp at 1 h in data set [1] (setting [8]) was determined as 3.8 ± 0.57. In data set [1] (setting [9]), the concentration at 1 h was 3000 ± 1380 nM. In addition, the concentration at 1 h in data set [1] (setting [10]) was 780 ± 350 nM.

`O=C(Nc1ccc2sc(-c3ccccc3)nc2c1)c1cccs1` [Compound 18, 2-Phenyl-5-(2-thienylamido)benzothiazole] returned a melting point of 256 °C. The EC50 in the data set on T. b. brucei (setting [4]) was found to be 882 nM. In addition, the EC50 in the data set with T. b. brucei (setting [5]) came out at 882 nM. Moreover, the concentration for an effect of 90% (EC90) in the data set on T. b. brucei (setting [6]) was 2130 nM. Besides, in the data set with human hepatocytes HepG2, the EC50 is > 50000 nM and the EC90 is > 50000 nM. Also, in data set [2], the EC50 is > 50000 nM and the EC90 was > 50000 nM.

The compound `O=C(Nc1ccc2sc(-c3ccccc3)nc2c1)N1CCSC1` [Compound 22] came in with a melting point of 177 to 179 °C. Moreover, the EC50 in the data set with T. b. brucei (setting [5]) was 1240 nM. The EC90 in the data set on T. b. brucei (setting [6]) was 2380 nM.

`O=C(Nc1ccc2sc(-c3ccccc3)nc2c1)N1CC=CCC1` [Compound 24, N-(2-Phenylbenzo[d]thiazol-5-yl)-3,6-dihydropyridine-1(2H)-carboxamide] returned a melting point of 199 to 200 °C. For the same compound, in the data set with T. b. brucei (setting [5]), the concentration for a half-maximal effect (EC50) was 1120 nM. Moreover, in the data set with T. b. brucei (setting [6]), the EC90 is 1350 nM.

`O=C(Nc1ccc2sc(-c3ccc(F)cc3)nc2c1)c1ccccc1` [Compound 25, 5-Benzamido-2-(4-fluorophenyl)benzothiazole]: the melting point was in the range of 232.5 to 233.5 °C. Also, in the data set with T. b. brucei (setting [5]), the EC50 was 1920 nM. The EC90 in the data set with T. b. brucei (setting [6]) amounted to 3000 nM.

In turn, `O=C(Nc1ccc2sc(-c3cccc(F)c3)nc2c1)c1ccccc1` [Compound 28, 5-Benzamido-2-(3-fluorophenyl)benzothiazole] registered a melting point of 221 to 222 °C. The half-maximal effective concentration (EC50) with T. b. brucei (setting [5]) amounted to 1780 nM. In the data set on T. b. brucei (setting [6]), the EC90 stood at 3620 nM.

As for `CN1CCN(C(=O)Nc2ccc3sc(-c4cccc(F)c4)nc3c2)CC1` [Compound 30, N-(2-(3-Fluorophenyl)benzothiazol-5-yl)-4-methylpiperazine-1-carboxamide], the melting point was in the range of 224 to 226 °C. The EC50 in the data set on T. b. brucei (setting [5]) amounted to 3150 nM. In the data set on T. b. brucei (setting [6]), the EC90 was 7550 nM.

`O=C(Nc1ccc2sc(-c3ccc(F)cc3F)nc2c1)N1CCCC1` [Compound 34, 2-(2,4-Difluorophenyl)-5-(N-pyrrolidylamido)benzothiazole]: the melting point was in the range of 223 to 224 °C. Moreover, the EC50 with T. b. brucei (setting [5]) is 929 nM. Further, the EC90 in the data set with T. b. brucei (setting [6]) is 1480 nM. In addition, in the data set with Trypanosoma cruzi (setting [7]), the EC50 worked out at 1730 nM. In addition, the EC90 in the data set with Trypanosoma cruzi (Table 10) was determined as 2020 nM.

Consider `N#CC1CCN(C(=O)Nc2ccc3sc(-c4ccc(F)c(F)c4)nc3c2)C1` (stereo not shown) [Compound 36, 2-(3,4-Difluorophenyl)-5-(3-cyano-N-pyrrolidylamido)benzothiazole], for which the melting point lay within 222 to 224 °C. Also, in the data set on T. b. brucei (setting [5]), the EC50 turned out to be 2850 nM. Besides, in the data set on T. b. brucei (setting [6]), the EC90 stood at 4670 nM.

The compound `O=C(Nc1ccc2sc(-c3ccc(F)c(F)c3)nc2c1)N1CCC(O)C1` (stereo not shown) [Compound 38, 2-(3,4-Difluorophenyl)-5-(3-hydroxy-N-pyrrolidylamido)benzothiazole] gave a melting point of 211 to 213 °C. The EC50 in the data set with T. b. brucei (setting [5]) came to 7680 nM. Besides, in the data set with T. b. brucei (setting [6]), the EC90 worked out at 13600 nM.

`COC1CCN(C(=O)Nc2ccc3sc(-c4ccc(F)c(F)c4)nc3c2)C1` (stereo not shown) [Compound 39, 2-(3,4-Difluorophenyl)-5-(3-methoxy-N-pyrrolidylamido)benzothiazole]: the melting point was in the range of 189 to 190.5 °C. The EC50 in the data set on T. b. brucei (setting [5]) turned out to be 3050 nM. The concentration for an effect of 90% (EC90) in the data set with T. b. brucei (setting [6]) was 4590 nM.

Turning to `O=C(Nc1ccc2sc(-c3ccc(F)c(F)c3)nc2c1)N1CCC(F)(F)CC1` [Compound 40, 2-(3,4-Difluorophenyl)-5-(4,4-difluoro-N-piperidylamido)benzothiazole], the melting point was in the range of 222 to 225 °C. Besides, the EC50 with T. b. brucei (setting [5]) is 2980 nM. Moreover, in the data set with T. b. brucei (setting [6]), the EC90 worked out at 4170 nM.

For the compound `O=C(Nc1ccn2cc(-c3ccc(F)c(F)c3)nc2n1)N1CC[C@H](F)C1` [Compound 54, (3S)-N-[2-(3,4-difluorophenyl)imidazo[1,2-a]pyrimidin-7-yl]-3-fluoropyrrolidine-1-carboxamide], the EC50 in the data set on T. b. brucei (Table 16, read-out: T. b. brucei EC50) is > 20000 nM; in the data set on Trypanosoma cruzi (Table 16, read-out: T. Cruzi EC50), 2530 nM.

`O=C(Nc1ccc2sc(-c3ccc(F)c(F)c3)nc2c1)N1C[C@@H](F)[C@@H](F)C1` [Compound 59, cis-2-(3,4-Difluorophenyl)-5-(3,4-difluoro-N-pyrrolidylamido)benzothiazole] showed a melting point of 241 to 243 °C. Besides, the EC50 in the data set on T. b. brucei (Table 17, read-out: T. b. brucei EC50) was found to be 340 nM. Besides, the EC90 in the data set on T. b. brucei (Table 17, read-out: T. b. brucei EC90) is 517 nM.

`N=C(N)c1ccc(OCCCCCOc2ccc(C(=N)N)cc2)cc1` [penth, Pentamidine, reference compound]: the concentration giving a half-maximal response (EC50) in the data set on T. b. brucei (setting [4]) was 1.05 nM; in the data set with human hepatocytes HepG2 it was > 100000 nM; in data set [2] it was 45400 nM. The EC90 (with human hepatocytes HepG2; in data set [2]) was > 100000 nM throughout.

The values are drawn from patent US10399966B2, “Compounds for treatment of trypanosomes and neurological pathogens and uses thereof” (The University of North Carolina at Chapel Hill, priority 2016, dated 2019).
